Assay results taken from PMC4503722, “Novel Phenotypic Outcomes Identified for a Public Collection of Approved Drugs from a Publicly Accessible Panel of Assays” (PLoS ONE, 2015).

What was measured:
[1] = system: endothelial tube formation in co-cultures of ECFCs and ADSCs treated with VEGF; assay: cells; format: cell-based, human
[2] = system: nuclear β-catenin in C2C12 cells; assay: cells; format: cell-based; conditions: concentration response; for WntCondMedia_bCatenin C2C12 IC50/EC50: assay number 5
[3] = system: alkaline phosphatase (ALP) activity in C2C12 cells; format: cell-based; conditions: concentration response; for WntCondMedia_Alk Phos C2C12 IC50/EC50: assay number 6
[4] = system: HeLa cells; assay: cells; format: cell-based; conditions: for Hela CellCycMod PI 2N IC50/EC50: assay number 14; for Hela CellCycMod PI 4N IC50/EC50: assay number 16; for Hela CellCycMod PI MI IC50/EC50: assay number 17; for Hela CellCycMod PI Cell Number IC50/EC50: assay number 18; for Hela CellCycMod PI S Phase IC50/EC50: assay number 15
[5] = system: DLD-1; assay: cells; format: cell-based; conditions: basal; for Basal_Viability ATP DLD-1 IC50/EC50: assay number 23
[6] = system: SW480; assay: cells; format: cell-based; conditions: basal; for Basal_Viability ATP SW480 IC50/EC50: assay number 24
[7] = system: HCT116; assay: cells; format: cell-based; conditions: basal; for Basal_Viability ATP HCT116 IC50/EC50: assay number 25
[8] = system: HCT116 cells treated with a GSK3β inhibitor; assay: cells; format: cell-based; conditions: for GSK3b inh pretreated_Viability ATP HCT116 IC50/EC50: assay number 26, GSK3b inhibitor pretreated
[9] = system: Colo320; assay: cells; format: cell-based; conditions: basal; for Basal_Viability ATP Colo 320 IC50/EC50: assay number 27
[10] = system: HT-29; assay: cells; format: cell-based; conditions: basal; for Basal_Viability ATP HT-29 IC50/EC50: assay number 28
[11] = system: RKO; assay: cells; format: cell-based; conditions: basal; for Basal_Viability ATP RKO IC50/EC50: assay number 29
[12] = system: SNU-C1; assay: cells; format: cell-based; conditions: basal; for Basal_Viability ATP SNU-C1 IC50/EC50: assay number 30
[13] = target: T1, hp70S6K1 (RPS6KB1) (Homo sapiens, UniProt P23443); assay: Cerep LANCE kinase assay hp70S6K1 (S1 assay 31); format: biochemical; conditions: for hp70S6K1 LANCE IC50/EC50: assay number 31
T1 construct: purchased Cerep (LANCE kinase assay platform, contract assay)

[14] = target: T2, hKDR (Homo sapiens, UniProt P35968); assay: Cerep LANCE kinase assay hKDR (S1 assay 32); format: biochemical; conditions: for hKDR LANCE IC50/EC50: assay number 32
T2 construct: purchased Cerep (LANCE kinase assay platform, contract assay)

[15] = target: T3, hJAK2 (Homo sapiens, UniProt O60674); assay: Cerep LANCE kinase assay hJAK2 (S1 assay 33); format: biochemical; conditions: for hJAK2 LANCE IC50/EC50: assay number 33
T3 construct: purchased Cerep (LANCE kinase assay platform, contract assay)

[16] = target: T4, hGSK3b (Homo sapiens, UniProt P49841); assay: Cerep LANCE kinase assay hGSK3b (S1 assay 34); format: biochemical; conditions: for hGSK3b LANCE IC50/EC50: assay number 34
T4 construct: purchased Cerep (LANCE kinase assay platform, contract assay)

[17] = target: T5, hFLT3 (Homo sapiens, UniProt P36888); assay: Cerep LANCE kinase assay hFLT3 (S1 assay 35); format: biochemical; conditions: for hFLT3 LANCE IC50/EC50: assay number 35
T5 construct: purchased Cerep (LANCE kinase assay platform, contract assay)

[18] = system: ECFC/ADSC co-culture cell nuclei number

T2 sequence (P35968 20-1356): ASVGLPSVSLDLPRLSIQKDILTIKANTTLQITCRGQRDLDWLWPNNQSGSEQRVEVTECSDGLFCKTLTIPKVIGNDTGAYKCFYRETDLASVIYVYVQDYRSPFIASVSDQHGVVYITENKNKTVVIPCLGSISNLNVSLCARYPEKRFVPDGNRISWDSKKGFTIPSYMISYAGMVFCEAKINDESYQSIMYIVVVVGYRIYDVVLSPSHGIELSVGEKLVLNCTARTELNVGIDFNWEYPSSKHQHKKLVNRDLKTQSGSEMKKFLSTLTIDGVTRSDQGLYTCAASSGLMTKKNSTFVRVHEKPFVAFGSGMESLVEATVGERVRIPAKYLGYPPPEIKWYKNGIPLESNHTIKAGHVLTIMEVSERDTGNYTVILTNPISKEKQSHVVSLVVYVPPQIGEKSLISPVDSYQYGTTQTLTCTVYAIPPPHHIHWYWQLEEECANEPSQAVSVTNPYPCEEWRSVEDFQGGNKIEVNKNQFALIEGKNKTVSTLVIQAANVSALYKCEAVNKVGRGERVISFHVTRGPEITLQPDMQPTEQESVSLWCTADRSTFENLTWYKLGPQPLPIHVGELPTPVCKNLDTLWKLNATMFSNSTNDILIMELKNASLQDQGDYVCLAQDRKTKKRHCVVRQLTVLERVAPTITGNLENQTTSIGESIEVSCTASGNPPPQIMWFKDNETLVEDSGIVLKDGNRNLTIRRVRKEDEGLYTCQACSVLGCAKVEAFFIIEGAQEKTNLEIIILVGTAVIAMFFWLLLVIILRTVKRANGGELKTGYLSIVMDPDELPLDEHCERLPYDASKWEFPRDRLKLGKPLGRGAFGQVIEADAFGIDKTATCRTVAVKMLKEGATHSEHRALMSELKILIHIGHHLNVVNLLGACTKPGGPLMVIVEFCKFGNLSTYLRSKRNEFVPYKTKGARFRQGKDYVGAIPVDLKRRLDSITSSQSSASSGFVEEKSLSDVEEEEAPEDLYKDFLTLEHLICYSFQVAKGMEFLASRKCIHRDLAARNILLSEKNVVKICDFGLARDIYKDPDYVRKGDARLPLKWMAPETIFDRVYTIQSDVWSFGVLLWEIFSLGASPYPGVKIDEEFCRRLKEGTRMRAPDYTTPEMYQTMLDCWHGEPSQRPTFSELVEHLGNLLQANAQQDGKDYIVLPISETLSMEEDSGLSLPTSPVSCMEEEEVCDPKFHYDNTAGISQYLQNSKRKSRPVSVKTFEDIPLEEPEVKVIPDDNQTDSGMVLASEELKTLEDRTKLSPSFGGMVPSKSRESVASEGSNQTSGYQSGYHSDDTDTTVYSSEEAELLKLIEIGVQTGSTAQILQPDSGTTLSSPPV
T5 sequence (P36888 27-993): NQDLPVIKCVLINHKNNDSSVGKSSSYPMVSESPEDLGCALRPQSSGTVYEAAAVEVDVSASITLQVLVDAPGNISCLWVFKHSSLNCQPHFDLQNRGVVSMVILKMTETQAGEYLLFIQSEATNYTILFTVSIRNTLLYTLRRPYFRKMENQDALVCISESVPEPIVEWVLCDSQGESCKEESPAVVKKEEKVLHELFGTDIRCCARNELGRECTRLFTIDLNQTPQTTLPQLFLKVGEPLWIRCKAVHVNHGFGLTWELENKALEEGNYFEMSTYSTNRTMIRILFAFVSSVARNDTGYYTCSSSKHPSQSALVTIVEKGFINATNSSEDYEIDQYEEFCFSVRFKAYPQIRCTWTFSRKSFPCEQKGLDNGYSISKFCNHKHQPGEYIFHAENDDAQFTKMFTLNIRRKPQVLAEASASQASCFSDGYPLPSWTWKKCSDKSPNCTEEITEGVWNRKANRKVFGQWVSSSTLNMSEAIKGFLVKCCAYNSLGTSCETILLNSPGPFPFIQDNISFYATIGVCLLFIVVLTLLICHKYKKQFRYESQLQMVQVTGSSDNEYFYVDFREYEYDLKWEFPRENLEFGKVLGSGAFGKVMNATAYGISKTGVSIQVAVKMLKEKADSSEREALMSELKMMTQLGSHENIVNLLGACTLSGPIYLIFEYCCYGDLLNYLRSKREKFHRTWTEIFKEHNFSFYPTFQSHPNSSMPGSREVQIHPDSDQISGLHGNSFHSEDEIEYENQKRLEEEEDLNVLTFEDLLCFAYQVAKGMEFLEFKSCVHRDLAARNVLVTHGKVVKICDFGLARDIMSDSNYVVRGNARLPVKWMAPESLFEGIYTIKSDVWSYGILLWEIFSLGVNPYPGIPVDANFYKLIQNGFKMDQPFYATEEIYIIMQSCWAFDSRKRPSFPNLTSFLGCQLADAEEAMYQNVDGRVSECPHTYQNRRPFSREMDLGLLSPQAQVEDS
T3 sequence (O60674 whole entry): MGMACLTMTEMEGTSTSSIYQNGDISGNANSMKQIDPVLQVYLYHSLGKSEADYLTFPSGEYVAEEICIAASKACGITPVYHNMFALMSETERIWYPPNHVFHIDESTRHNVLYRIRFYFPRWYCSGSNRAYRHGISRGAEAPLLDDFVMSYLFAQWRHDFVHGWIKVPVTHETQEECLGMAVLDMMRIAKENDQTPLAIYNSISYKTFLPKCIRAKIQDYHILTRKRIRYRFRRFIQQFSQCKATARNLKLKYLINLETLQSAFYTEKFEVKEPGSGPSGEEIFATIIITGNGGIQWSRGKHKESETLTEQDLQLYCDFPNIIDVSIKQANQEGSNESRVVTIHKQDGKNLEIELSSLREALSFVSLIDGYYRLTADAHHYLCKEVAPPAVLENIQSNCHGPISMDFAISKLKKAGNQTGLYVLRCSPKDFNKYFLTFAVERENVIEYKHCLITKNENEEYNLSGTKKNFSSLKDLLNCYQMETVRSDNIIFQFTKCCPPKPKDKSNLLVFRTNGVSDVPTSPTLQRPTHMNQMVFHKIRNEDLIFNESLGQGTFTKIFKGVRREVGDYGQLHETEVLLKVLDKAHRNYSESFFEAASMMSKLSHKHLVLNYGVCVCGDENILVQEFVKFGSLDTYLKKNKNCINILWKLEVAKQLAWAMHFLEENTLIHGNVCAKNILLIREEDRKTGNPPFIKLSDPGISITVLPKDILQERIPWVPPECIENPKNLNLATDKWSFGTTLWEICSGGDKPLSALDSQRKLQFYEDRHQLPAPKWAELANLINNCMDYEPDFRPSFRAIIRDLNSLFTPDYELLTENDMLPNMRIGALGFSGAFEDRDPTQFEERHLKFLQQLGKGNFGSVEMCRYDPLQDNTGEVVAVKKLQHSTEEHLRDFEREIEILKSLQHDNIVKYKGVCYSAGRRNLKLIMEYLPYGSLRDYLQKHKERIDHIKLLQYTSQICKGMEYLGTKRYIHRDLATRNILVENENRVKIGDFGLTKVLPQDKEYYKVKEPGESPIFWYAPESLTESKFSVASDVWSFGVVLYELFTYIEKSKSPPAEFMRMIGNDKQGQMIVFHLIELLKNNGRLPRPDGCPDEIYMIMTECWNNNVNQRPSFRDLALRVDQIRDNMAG
T4 sequence (P49841 whole entry): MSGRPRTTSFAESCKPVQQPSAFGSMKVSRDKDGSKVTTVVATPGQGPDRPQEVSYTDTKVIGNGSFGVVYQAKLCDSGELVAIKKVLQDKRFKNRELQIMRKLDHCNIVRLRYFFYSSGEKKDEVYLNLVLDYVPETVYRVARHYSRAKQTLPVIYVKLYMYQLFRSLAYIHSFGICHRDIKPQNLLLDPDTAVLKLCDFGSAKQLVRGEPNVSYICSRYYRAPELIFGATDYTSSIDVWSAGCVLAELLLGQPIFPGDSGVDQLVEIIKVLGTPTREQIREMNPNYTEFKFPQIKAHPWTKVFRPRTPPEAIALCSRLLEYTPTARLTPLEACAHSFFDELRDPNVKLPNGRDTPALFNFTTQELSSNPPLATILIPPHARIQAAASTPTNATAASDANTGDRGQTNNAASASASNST
T1 sequence (P23443 whole entry): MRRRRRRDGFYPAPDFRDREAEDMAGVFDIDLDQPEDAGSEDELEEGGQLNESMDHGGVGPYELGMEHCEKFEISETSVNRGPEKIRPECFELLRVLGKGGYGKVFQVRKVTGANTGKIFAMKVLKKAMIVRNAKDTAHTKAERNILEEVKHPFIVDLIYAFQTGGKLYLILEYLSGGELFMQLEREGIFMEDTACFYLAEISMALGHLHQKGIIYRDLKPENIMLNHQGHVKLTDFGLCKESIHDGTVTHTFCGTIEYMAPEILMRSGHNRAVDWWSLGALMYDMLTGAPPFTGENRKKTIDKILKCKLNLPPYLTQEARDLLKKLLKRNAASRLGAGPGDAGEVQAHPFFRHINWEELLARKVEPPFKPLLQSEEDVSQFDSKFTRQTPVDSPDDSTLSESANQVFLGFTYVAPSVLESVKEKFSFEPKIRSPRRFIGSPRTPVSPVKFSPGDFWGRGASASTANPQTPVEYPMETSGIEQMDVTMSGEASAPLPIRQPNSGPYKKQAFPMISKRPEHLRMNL

CCCSc1ccc2nc(NC(=O)OC)[nH]c2c1 [NCGC00016876-12]
IC50/EC50, VEGF_ADSC\ECFC Angio CD31 TubeArea (assay number 2) [1]: 0.3554 µM | IC50/EC50, WntCondMedia_bCatenin C2C12 (assay number 5) [2]: 1.2764 µM | IC50/EC50, WntCondMedia_Alk Phos C2C12 (assay number 6) [3]: 12.2685 µM | IC50/EC50, Hela CellCycMod PI 2N (assay number 14) ([4]; 2N): 0.0656 µM | IC50/EC50, Hela CellCycMod PI 4N (assay number 16) ([4]; 4N): 0.0612 µM | IC50/EC50, Hela CellCycMod PI Cell Number (assay number 18) ([4]; Cell Number): 0.0377 µM | IC50/EC50, Hela CellCycMod PI MI (assay number 17) ([4]; MI): 0.0615 µM | IC50/EC50, Hela CellCycMod PI S Phase (assay number 15) ([4]; S Phase): > 10 µM | IC50/EC50, Basal_Viability ATP DLD-1 (assay number 23) [5]: 0.1085 µM | IC50/EC50, Basal_Viability ATP SW480 (assay number 24) [6]: > 20 µM | IC50/EC50, Basal_Viability ATP HCT116 (assay number 25) [7]: 0.1118 µM | IC50/EC50, GSK3b inh pretreated_Viability ATP HCT116 (assay number 26) ([8]; GSK3b inh pretreated): 0.1579 µM | IC50/EC50, Basal_Viability ATP Colo 320 (assay number 27) [9]: 0.502 µM | IC50/EC50, Basal_Viability ATP HT-29 (assay number 28) [10]: > 20 µM | IC50/EC50, Basal_Viability ATP RKO (assay number 29) [11]: 0.1653 µM | IC50/EC50, Basal_Viability ATP SNU-C1 (assay number 30) [12]: > 20 µM | IC50/EC50, hp70S6K1 LANCE (assay number 31) [13]: > 20 µM | IC50/EC50, hKDR LANCE (assay number 32) [14]: > 20 µM | IC50/EC50, hJAK2 LANCE (assay number 33) [15]: > 20 µM | IC50/EC50, hGSK3b LANCE (assay number 34) [16]: > 20 µM | IC50/EC50, hFLT3 LANCE (assay number 35) [17]: > 20 µM | IC50/EC50, VEGF_ADSC\ECFC Angio Hoechst NucArea (assay number 3) [18]: > 10 µM

Cc1cc(C2CCCCC2)n(O)c(=O)c1.NCCO [NCGC00017112-10]
VEGF_ADSC\ECFC Angio CD31 TubeArea IC50/EC50 [1]: > 10 µM | WntCondMedia_bCatenin C2C12 IC50/EC50 [2]: > 20 µM | WntCondMedia_Alk Phos C2C12 IC50/EC50 [3]: 1.0476 µM | Hela CellCycMod PI 2N IC50/EC50 ([4]; 2N): > 10 µM | Hela CellCycMod PI 4N IC50/EC50 ([4]; 4N): > 10 µM | Hela CellCycMod PI MI IC50/EC50 ([4]; MI): > 10 µM | Hela CellCycMod PI Cell Number IC50/EC50 [4]: 0.5693 µM | Basal_Viability ATP DLD-1 IC50/EC50 [5]: 0.316 µM | Basal_Viability ATP SW480 IC50/EC50 [6]: 0.469 µM | Basal_Viability ATP HCT116 IC50/EC50 [7]: 0.6557 µM | GSK3b inh pretreated_Viability ATP HCT116 IC50/EC50 [8]: 0.3898 µM | Basal_Viability ATP Colo 320 IC50/EC50 [9]: 0.2084 µM | Basal_Viability ATP HT-29 IC50/EC50 [10]: 7.035 µM | Basal_Viability ATP RKO IC50/EC50 [11]: 0.2329 µM | Basal_Viability ATP SNU-C1 IC50/EC50 [12]: > 20 µM | hp70S6K1 LANCE IC50/EC50 [13]: > 20 µM | hKDR LANCE IC50/EC50 [14]: > 20 µM | hJAK2 LANCE IC50/EC50 [15]: > 20 µM | hGSK3b LANCE IC50/EC50 [16]: > 20 µM | hFLT3 LANCE IC50/EC50 [17]: > 20 µM | VEGF_ADSC\ECFC Angio Hoechst NucArea IC50/EC50 [18]: > 10 µM

O=C(CCl)c1ccc(Cl)cc1Cl [NCGC00091258-05]
VEGF_ADSC\ECFC Angio CD31 TubeArea IC50/EC50 [1]: 2.4875 µM | WntCondMedia_bCatenin C2C12 IC50/EC50 [2]: 0.3728 µM | WntCondMedia_Alk Phos C2C12 IC50/EC50 [3]: > 20 µM | Hela CellCycMod PI 2N IC50/EC50 ([4]; 2N): 0.514 µM | Hela CellCycMod PI S Phase IC50/EC50 [4]: > 10 µM | Hela CellCycMod PI 4N IC50/EC50 ([4]; 4N): > 10 µM | Hela CellCycMod PI MI IC50/EC50 ([4]; MI): 0.541 µM | Hela CellCycMod PI Cell Number IC50/EC50 [4]: 0.35 µM | Basal_Viability ATP DLD-1 IC50/EC50 [5]: 2.0651 µM | Basal_Viability ATP SW480 IC50/EC50 [6]: 1.249 µM | Basal_Viability ATP HCT116 IC50/EC50 [7]: 6.3 µM | GSK3b inh pretreated_Viability ATP HCT116 IC50/EC50 [8]: 1.098 µM | Basal_Viability ATP Colo 320 IC50/EC50 [9]: 0.5301 µM | Basal_Viability ATP HT-29 IC50/EC50 [10]: 8.5217 µM | Basal_Viability ATP RKO IC50/EC50 [11]: 4.299 µM | Basal_Viability ATP SNU-C1 IC50/EC50 [12]: 2.9752 µM | hp70S6K1 LANCE IC50/EC50 [13]: > 20 µM | hKDR LANCE IC50/EC50 [14]: > 20 µM | hJAK2 LANCE IC50/EC50 [15]: > 20 µM | hGSK3b LANCE IC50/EC50 [16]: > 20 µM | hFLT3 LANCE IC50/EC50 [17]: > 20 µM | VEGF_ADSC\ECFC Angio Hoechst NucArea IC50/EC50 [18]: 6.1739 µM

Cc1cc(=O)c2c(O)c3c(O)cc(=O)c4c3c3c(cc(O)c1c23)C(C)(C)C=4O [NCGC00160275-03]
VEGF_ADSC\ECFC Angio CD31 TubeArea IC50/EC50 [1]: 0.1005 µM | WntCondMedia_bCatenin C2C12 IC50/EC50 [2]: 1.0715 µM | WntCondMedia_Alk Phos C2C12 IC50/EC50 [3]: 2.9111 µM | Hela CellCycMod PI 2N IC50/EC50 ([4]; 2N): > 10 µM | Hela CellCycMod PI S Phase IC50/EC50 [4]: > 10 µM | Hela CellCycMod PI 4N IC50/EC50 ([4]; 4N): > 10 µM | Hela CellCycMod PI MI IC50/EC50 ([4]; MI): > 10 µM | Hela CellCycMod PI Cell Number IC50/EC50 [4]: 1.0003 µM | Basal_Viability ATP DLD-1 IC50/EC50 [5]: 0.07089 µM | Basal_Viability ATP SW480 IC50/EC50 [6]: 0.05797 µM | Basal_Viability ATP HCT116 IC50/EC50 [7]: 0.07747 µM | GSK3b inh pretreated_Viability ATP HCT116 IC50/EC50 [8]: 0.05735 µM | Basal_Viability ATP Colo 320 IC50/EC50 [9]: 0.08199 µM | Basal_Viability ATP HT-29 IC50/EC50 [10]: 3.006 µM | Basal_Viability ATP RKO IC50/EC50 [11]: 0.0754 µM | Basal_Viability ATP SNU-C1 IC50/EC50 [12]: 0.3321 µM | hp70S6K1 LANCE IC50/EC50 [13]: > 20 µM | hKDR LANCE IC50/EC50 [14]: > 20 µM | hJAK2 LANCE IC50/EC50 [15]: > 20 µM | hGSK3b LANCE IC50/EC50 [16]: 6.9 µM | hFLT3 LANCE IC50/EC50 [17]: 1.97 µM | VEGF_ADSC\ECFC Angio Hoechst NucArea IC50/EC50 [18]: 2.074 µM
